{"source": "patent US20240027453A1", "about": "“METHOD FOR DETECTION AND QUANTITATIVE MONITORING OF INFECTIONS WITH HERPESVIRUSES” (The Trustees of Princeton University, priority 2020, published 2024)", "system": "HCMV", "format": "cell-based", "protocol": "In example herpesvirus PRM assay methods shown herein, cell pellets were lysed in 2% SDS, 100 mM NaCl, 0.5 mM EDTA, 50 mM Tris, pH 8.2, and 50 μg of protein was reduced and alkylated with 25 mM TCEP and 50 mM CAM respectively for 20 min at 70° C. Proteins were then precipitated via methanol chloroform precipitation (Wessel & Flugg, Anal Biochem. 138(1):141-143, 1984), resuspended in 50 mM HEPES, pH 8.2 and digested overnight with trypsin (50:1 protein:enzyme w/w ratio). Digested peptides were desalted by SDB-RPS StageTip as previously described (Lum et al., Cell Syst., 7(6):[…], 2018; Greco et al., Methods Mol Biol 1410:39-63, 2016; Federspiel & Cristea, Methods Mol Biol., 1977:115-143, 2019).\nPeptides (1.0 μg on column) were analyzed by LC-MS/MS using a Dionex Ultimate 3000 UHPLC coupled online to an EASYSpray ion source and a Q Exactive HF. Peptides were separated on an EASYSpray C18 column (75 μm×25 cm) heated to 50° C. using a linear gradient of 5% B to 32% B over 60 min at a flow rate of 250 nL/min and were ionized at 1.7 kv. Mobile phase A consisted of 0.1% FA in H2O and mobile phase B consisted of 0.1% FA, 2.9% H2O in ACN.\nThe PRM method was controlled by a peptide inclusion list with retention time windows of 6 min for selected precursor ions.\nThe PRM assay was developed and analyzed using the open-source software Skyline (Maclean et al., Bioinformatics 26(7):966-968, 2010). Summed area under the curve of 3-4 transitions per peptide was used for quantitation. Targeted peptides were normalized to host protein loading control peptides. Peptide values for each sample were scaled to the average of each peptide across all runs. The average of multiple peptides was used as the inferred value for the protein measurement when more than one peptide was quantified (Federspiel et al., PLoS Biol. 17(9):e3000437. Doi: 10.1371/journal.pbio.3000437). PRM quantitation data were graphed using the Python Seaborn and Matplotlib libraries.\nMRC5 primary human fibroblasts (HFs) (ATCC CCL-171) were used as the model system for HSV-1 and HCMV infections and were cultured in complete growth medium (DMEM supplemented with 10% fetal bovine serum and 1% penicillin-streptomycin antibiotics) at 37° C. and 5% CO2. iSLK.219 cells harboring latent KSHV (a gift from Dr. Britt Glaunsinger, University of California, Berkeley) were grown in complete growth medium supplemented with 500 μg/ml hygromycin (ThermoFisher Scientific, 10687010) at 37° C. and 5% CO2. All cells were used for experiments within a maximum of 10 passages.\nWild type HSV-1 strain 17+ (a gift from Beate Sodeik, Hannover Medical School, Hannover, Germany) was propagated as previously described (Diner et al., 2015). Briefly, PO stocks were generated by electroporating pBAC-HSV-1 into U-2 OS cells. […] In a similar manner, wild type HCMV strain AD169 was produced from BAC electroporation into HFs and working stocks were propagated by infecting HFs at a low level. In both cases, cell-associated virus was released by sonication, combined with supernatant virus, then concentrated by ultracentrifugation (20,000 rpm, 2 hours, 4° C. with SW28 swinging bucket rotor [Beckman Coulter]) over a 10% ficoll (HSV-1) or 20% sorbitol (HCMV) cushion. Virus stock titers were determined by plaque assay for HSV-1 or tissue culture infectious dose (TCID50) for HCMV and infections were performed at a multiplicity of infection (MOI) of 3.\n12 hours prior to virus infection or reactivation, cells were treated with either the small molecule drug or DMSO/PBS control at an equivalent volume. […] For infection cycles lasting longer than 24 hours, small molecule drugs were re-added to the cell culture medium every 24 hours. Upon collection, cells were rinsed with PBS, scraped into a microcentrifuge tube, pelleted by centrifugation, and rinsed again with PBS.", "note": "Where two headings read alike, the source gives them in different places."}
{"smiles": "Nc1ccn(C[C@@H](CO)OCP(=O)(O)O)c(=O)n1", "note": "[CDV, cidofovir]", "values": [{"measurement": "HCMV late gene expression", "value": "reduction"}, {"measurement": "HCMV protein levels across all temporal classes of gene expression", "setting": "1 μM", "value": "substantial decreases"}, {"measurement": "impact on HCMV IE genes compared to other gene classes", "setting": "1 μM", "value": "relatively less impacted"}, {"measurement": "decrease of HCMV protein UL54", "setting": "1 μM, across all time points", "value": "less than 20%"}, {"measurement": "decrease in HCMV protein levels compared to PBS control", "setting": "1 μM, by 72 HPI, in more than 85% of the proteins monitored", "value": "at least 35%"}, {"measurement": "decrease in abundance of HCMV IE protein UL122", "setting": "1 μM, by 120 HPI", "value": "~70", "unit": "%"}, {"measurement": "DBP (P17147) protein, numerical value of heatmap FIG. 6C", "setting": "DE, timepoint 24", "value": 0.04283}, {"measurement": "HELI (P16736) protein, numerical value of heatmap FIG. 6C", "setting": "DE, timepoint 24", "value": 0.1024}, {"measurement": "NEC2 (P16791) protein, numerical value of heatmap FIG. 6C", "setting": "DE, timepoint 24", "value": 0.0159}, {"measurement": "RIR1 (P16782) protein, numerical value of heatmap FIG. 6C", "setting": "DE, timepoint 24", "value": 0.04961}, {"measurement": "UL26 (P16762) protein, numerical value of heatmap FIG. 6C", "setting": "DE, timepoint 24", "value": 0.04954}, {"measurement": "UL32 (P08318) protein, numerical value of heatmap FIG. 6C", "setting": "DE, timepoint 24", "value": 0.01616}, {"measurement": "UL34 (P16812) protein, numerical value of heatmap FIG. 6C", "setting": "DE, timepoint 24", "value": 0.05376}, {"measurement": "UL38 (P16779) protein, numerical value of heatmap FIG. 6C", "setting": "DE, timepoint 24", "value": 0.5007}, {"measurement": "UL44 (P16790) protein, numerical value of heatmap FIG. 6C", "setting": "DE, timepoint 24", "value": 0.0325}, {"measurement": "UL54 (P08546) protein, numerical value of heatmap FIG. 6C", "setting": "DE, timepoint 24", "value": 0.2154}, {"measurement": "UL71 (P16823) protein, numerical value of heatmap FIG. 6C", "setting": "DE, timepoint 24", "value": 0.2978}, {"measurement": "UL78 (P16751) protein, numerical value of heatmap FIG. 6C", "setting": "DE, timepoint 24", "value": 0.1834}, {"measurement": "UL84 (P16727) protein, numerical value of heatmap FIG. 6C", "setting": "DE, timepoint 24", "value": 0.0827}, {"measurement": "UL96 (P16787) protein, numerical value of heatmap FIG. 6C", "setting": "DE, timepoint 24", "value": 0.339}, {"measurement": "UL97 (P16788) protein, numerical value of heatmap FIG. 6C", "setting": "DE, timepoint 24", "value": 0.1685}, {"measurement": "UL98 (P16789) protein, numerical value of heatmap FIG. 6C", "setting": "DE, timepoint 24", "value": 0.1785}, {"measurement": "UL102 (P16827) protein, numerical value of heatmap FIG. 6C", "setting": "DE, timepoint 24", "value": 0.2917}, {"measurement": "UL112/UL113 (P17151) protein, numerical value of heatmap FIG. 6C", "setting": "DE, timepoint 24", "value": 0.3345}, {"measurement": "UL114 (P16769) protein, numerical value of heatmap FIG. 6C", "setting": "DE, timepoint 24", "value": 0.3025}, {"measurement": "UL119/UL118 (P16739) protein, numerical value of heatmap FIG. 6C", "setting": "DE, timepoint 24", "value": 0.07541}, {"measurement": "UL128 (P16837) protein, numerical value of heatmap FIG. 6C", "setting": "DE, timepoint 24", "value": 0.1472}, {"measurement": "US8 (P09730) protein, numerical value of heatmap FIG. 6C", "setting": "DE, timepoint 24", "value": 0.3317}, {"measurement": "US9 (P09729) protein, numerical value of heatmap FIG. 6C", "setting": "DE, timepoint 24", "value": 0.2308}, {"measurement": "US12 (P09721) protein, numerical value of heatmap FIG. 6C", "setting": "DE, timepoint 24", "value": 0.6397}, {"measurement": "US13 (P09720) protein, numerical value of heatmap FIG. 6C", "setting": "DE, timepoint 24", "value": 0.2174}, {"measurement": "US14 (P09719) protein, numerical value of heatmap FIG. 6C", "setting": "DE, timepoint 24", "value": 0.1903}, {"measurement": "US18 (P69334) protein, numerical value of heatmap FIG. 6C", "setting": "DE, timepoint 24", "value": 0.3161}, {"measurement": "US22 (P09722) protein, numerical value of heatmap FIG. 6C", "setting": "DE, timepoint 24", "value": 0.1701}, {"measurement": "US23 (P09701) protein, numerical value of heatmap FIG. 6C", "setting": "DE, timepoint 24", "value": 0.3435}, {"measurement": "US24 (P09700) protein, numerical value of heatmap FIG. 6C", "setting": "DE, timepoint 24", "value": 0.2973}, {"measurement": "gB (P06473) protein, numerical value of heatmap FIG. 6C", "setting": "DE, timepoint 24", "value": 0.05133}, {"measurement": "sp|P09710|IR01_HCMVA (P09710) protein, numerical value of heatmap FIG. 6C", "setting": "DE, timepoint 24", "value": 0.1514}, {"measurement": "DBP (P17147) protein, numerical value of heatmap FIG. 6C", "setting": "DE, timepoint 48", "value": 0.2386}, {"measurement": "HELI (P16736) protein, numerical value of heatmap FIG. 6C", "setting": "DE, timepoint 48", "value": 0.4106}, {"measurement": "NEC2 (P16791) protein, numerical value of heatmap FIG. 6C", "setting": "DE, timepoint 48", "value": 0.08567}, {"measurement": "RIR1 (P16782) protein, numerical value of heatmap FIG. 6C", "setting": "DE, timepoint 48", "value": 0.1065}, {"measurement": "TRM1 (P16724) protein, numerical value of heatmap FIG. 6C", "setting": "DE, timepoint 48", "value": 0.1188}, {"measurement": "UL4 (P17146) protein, numerical value of heatmap FIG. 6C", "setting": "DE, timepoint 48", "value": 0.07447}, {"measurement": "UL26 (P16762) protein, numerical value of heatmap FIG. 6C", "setting": "DE, timepoint 48", "value": 0.1073}, {"measurement": "UL32 (P08318) protein, numerical value of heatmap FIG. 6C", "setting": "DE, timepoint 48", "value": 0.03113}, {"measurement": "UL34 (P16812) protein, numerical value of heatmap FIG. 6C", "setting": "DE, timepoint 48", "value": 0.1018}, {"measurement": "UL38 (P16779) protein, numerical value of heatmap FIG. 6C", "setting": "DE, timepoint 48", "value": 0.7494}, {"measurement": "UL44 (P16790) protein, numerical value of heatmap FIG. 6C", "setting": "DE, timepoint 48", "value": 0.09556}, {"measurement": "UL48 (P16785) protein, numerical value of heatmap FIG. 6C", "setting": "DE, timepoint 48", "value": 0.04333}, {"measurement": "UL54 (P08546) protein, numerical value of heatmap FIG. 6C", "setting": "DE, timepoint 48", "value": 0.6243}]}
